Measurements: publication PMC7821884, “BRAF inhibition protects against hearing loss in mice” (Science Advances, 2020)

Assays:
[1] = system: P3-P4 FVB mouse cochlear explants; design: method as in PMID 29514916, PMID 9303151; details: identical P3 FVB explant model; read-out: IC50, protection from cisplatin in explants; cited from earlier work
HEI-OC1 cell line = assay: Caspase-Glo 3/7 activity screen for protection from cisplatin-induced cell death; assay type: cell-based, mouse; details: HEI-OC1, 50 μM cisplatin, 22 hours
Description: An unbiased screen for compounds protective against cisplatin ototoxicity ([12], [13]) was conducted using the immortalized inner ear cell line HEI-OC1 derived from mouse cochlea ([14]). One hundred sixty-two unique small-molecule kinase-specific inhibitors were screened in dose-response mode for protection from 50 μM cisplatin. A caspase-3/7 activity assay was selected to measure apoptosis using a protocol that quantifies a luminescent product derived from the cleavage of caspase-3/7 substrate (Caspase-Glo 3/7 reagent). One hundred percent luminescence was defined by cells treated with cisplatin alone, and 0% was defined by untreated cells (Fig. 1A, fig. S1, table S1, and dataset in the Supplementary Materials).
In these screens, caspase-3 cleavage was chosen as the end point indicating cisplatin-induced apoptosis, because it allowed the inhibition of cell death to be monitored at the level of any molecular target upstream of caspase-3 cleavage in the HEI-OC1 cell line. Cells were plated at a previously optimized concentration of 1600 cells per well in medium without γ-interferon to limit proliferation and tested against 50 μM cisplatin based on a previous dose–response curve. Tested compounds were dissolved in DMSO before addition to medium with a final DMSO concentration of <0.5%. The screens are described in detail in our previous publications ([12], [13]). […]

[2] = cited from earlier work
[3] = design: method as in PMID 25665007, PMID 25058905, PMID 23044998; details: cisplatin chemotherapy; cited from earlier work
[4] = system: P3-P4 FVB mouse cochlear explants; details: 150 μM, 24 hours
Description: Mouse cochlear explants are widely recognized as an alternative to in vivo cochlear models and pragmatic for focused drug screening ([37]). […] Medium-alone, drug-alone, and cisplatin-alone treatments were used as controls.
P3-P4 FVB mouse cochleae were dissected and maintained in culture on filter inserts in six-well plates with 1 ml of growth medium DMEM (12430-054,Gibco Life Technologies), with 1% FBS (16000-044, Gibco Life Technologies), B-27 supplement (200 μl/500 ml; 17504-44, Gibco Life Technologies), N-2 supplement (100 μl/500 ml; 17502-048, Gibco Life Technologies), and ampicillin (50 μg/ml; A5354-10ML, Sigma-Aldrich) both inside and outside the filter (Millicell, PICM03050, Millipore). […] Cochleae were imaged by confocal microscopy, two 160-μm regions from middle turns were photographed, and the number of intact HCs was counted. Two to five independent cochleae were tested for each experimental condition.

P42 FVB mice = assay: Cisplatin-induced hearing loss in adult mice (ABR, OHC counts, pERK); details: cisplatin 30 mg/kg i.p., alone or combined with dabrafenib
Description: As described in Fig. 4A, baseline auditory brainstem response (ABR) thresholds for P42 FVB mice were established 1 week before experimental procedures. […] Animals were allowed 21 days after cisplatin injection to recover, and final ABR thresholds were recorded.
Ten milligrams of cisplatin (479306, Sigma-Aldrich) powder was dissolved in 10 ml of sterile saline (0.9% NaCl) at 37°C for 40 to 60 min. Cisplatin was administered to FVB mice at 30 mg/kg via intraperitoneal injection. One day before cisplatin injection, mice received 1 ml of saline by subcutaneous injection. To ameliorate dehydration after cisplatin injection, 1 ml of warm saline was injected twice per day for at least 7 days or until body weight started to recover. The cages of cisplatin-treated mice were placed on the heating pad for at least 7 days or until body weight began to recover. Fresh mush food was daily given for at least 7 days.
Compounds were dissolved in a mixture of 10% DMSO, 5% Tween 80 (P1754, Sigma-Aldrich), 40% PEG-E-300 (91462-1KG, Sigma-Aldrich), and 45% 0.9% saline.
ABR in mice was measured for left ears as described previously with minor modifications ([13], [34]). In brief, ABR waveforms were recorded in a sound booth (Industrial Acoustic Company) by using subdermal needles positioned in the skull, below the pinna, and at the base of the tail, and the responses were fed into a low-impedance Medusa digital biological amplifier system (RA4L; TDT; 20-dB gain). At each frequency, the stimulus intensity was reduced from 90 to 0 dB in 10-dB steps to determine the threshold decibel SPL when the electrical response was just above the noise floor. ABR waveforms were averaged in response to 500 tone bursts. The recorded signals were filtered by a band-pass filter from 300 Hz to 3 kHz. Pretreatment ABR recordings of adult FVB mice (aged 6 weeks) were acquired 1 week before all treatments, and posttreatment ABR measurements were recorded 21 days after cisplatin treatment or 14 days after noise exposure. ABR threshold was determined by the presence of any of three or more of the five waveform peaks. […] All thresholds and shifts were determined independently by two experimenters for each mouse. Individual ABR wave 1 amplitudes were measured as the difference between the positive peak and the following negative trough.
Cochleae from adult mice were prepared and examined as described previously ([85], [86]). All images were acquired with a confocal microscope (LSM 700 or 710, Zeiss). Samples were stained with phalloidin (A12379 or A12380, Invitrogen) or with antibodies for other markers. The following primary antibodies were used: anti–myosin VI (1:400; 25-6791; Proteus Bioscience), anti–myosin VIIa ([…];138-1-s, Developmental Studies Hybridoma Bank), anti-Tuj1 (1:250; 801201, BioLegend), anti-pERK (1:400; 9101S, Cell Signaling Technology), or anti-Ctbp2 (1:500; 612044, BD Transduction). Anti-rabbit Alexa Fluor 488 (1:400; A11034) and anti-mouse Alexa Fluor 647 (1:400; A31571) secondary antibodies were purchased from Invitrogen. ProLong gold antifade reagent with 4′,6-diamidino-2-phenylindole (P36941, Invitrogen) was used to counterstain nuclei.

[5] = design: method as in PMID 25894725, PMID 26655654; details: cited from earlier work

## CSCC[C@@H](N)C(=O)O [D-methionine]
[1]
  IC50: 98.4 µM

## Cc1ccc(C(=O)Cn2c3c(sc2=N)CCCC3)cc1 [Pifithrin-α]
HEI-OC1 cell line
  IC50: 7.7 µM

## O=S([O-])([O-])=S.[Na+].[Na+] [STS, sodium thiosulfate]
[2]; children with localized standard-risk hepatoblastoma, 6 hours after cisplatin chemotherapy
  lowering of incidence of hearing loss: 48%
[2]
  survival of treated patients with disseminated tumors: lowered survival rate

## N.N.[Cl][Pt][Cl] [cisplatin]
[3]
  patients with cancer with hearing loss: 40 to 60%
[4]
  OHCs that died with cisplatin: ~40%
P42 FVB mice
  survival rate of mice: 50%

## C[C@@H]1C[C@H]2[C@@H]3CCC4=CC(=O)C=C[C@]4(C)[C@@]3(F)[C@@H](O)C[C@]2(C)[C@@]1(O)C(=O)CO [dexamethasone]
[1]
  IC50: > 0.25 µM
[5]
  effectiveness in treating noise ototoxicity: only partially effective

## O=c1c2ccccc2[se]n1-c1ccccc1 [ebselen]
[1]
  IC50: 10.8 µM

## O=C1Cc2c([nH]c3ccc(Br)cc23)-c2ccccc2N1 [kenpaullone]
[1]
  IC50: 0.2 µM
